According to article PMC4728427, “Mechanism of allosteric activation of TMEM16A/ANO1 channels by a commonly used chloride channel blocker” (British Journal of Pharmacology, 2016):

Biological target: T1, Mouse TMEM16A (Mus musculus, UniProt Q8BHY3)
T1 construct: expressed in transfected cells; host or cells: HEK-293T
T1 sequence (Q8BHY3 1-960): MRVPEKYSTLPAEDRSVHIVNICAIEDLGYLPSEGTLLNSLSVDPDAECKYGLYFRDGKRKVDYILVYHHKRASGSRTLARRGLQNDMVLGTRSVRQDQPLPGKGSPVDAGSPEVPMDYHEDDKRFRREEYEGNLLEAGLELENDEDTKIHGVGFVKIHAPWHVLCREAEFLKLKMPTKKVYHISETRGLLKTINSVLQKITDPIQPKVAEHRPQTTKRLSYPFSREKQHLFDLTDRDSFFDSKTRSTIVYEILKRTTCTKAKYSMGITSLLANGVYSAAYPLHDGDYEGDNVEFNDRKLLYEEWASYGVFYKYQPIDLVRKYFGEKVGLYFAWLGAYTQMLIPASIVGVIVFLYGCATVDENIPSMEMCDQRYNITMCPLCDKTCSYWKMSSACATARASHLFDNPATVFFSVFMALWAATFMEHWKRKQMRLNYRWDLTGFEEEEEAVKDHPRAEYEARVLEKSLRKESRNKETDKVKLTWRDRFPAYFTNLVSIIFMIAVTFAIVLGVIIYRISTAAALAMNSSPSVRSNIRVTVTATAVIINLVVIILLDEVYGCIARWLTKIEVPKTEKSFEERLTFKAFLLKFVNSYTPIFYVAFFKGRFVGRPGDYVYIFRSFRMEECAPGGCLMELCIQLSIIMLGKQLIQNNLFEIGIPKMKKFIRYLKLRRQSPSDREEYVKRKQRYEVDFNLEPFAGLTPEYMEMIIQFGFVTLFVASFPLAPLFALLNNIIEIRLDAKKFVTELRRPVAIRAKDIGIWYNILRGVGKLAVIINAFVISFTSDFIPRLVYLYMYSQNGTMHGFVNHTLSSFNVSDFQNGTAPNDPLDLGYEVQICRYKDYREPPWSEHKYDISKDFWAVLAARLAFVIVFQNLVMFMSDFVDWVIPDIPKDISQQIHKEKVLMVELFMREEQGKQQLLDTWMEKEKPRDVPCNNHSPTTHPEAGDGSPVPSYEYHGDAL
Assay: Whole-cell TMEM16A current versus Vm relationship with extracellular A9C, 300 nM [Ca2+]i
Format: cell-based
Protocol: Mouse TMEM16A (GenBank NM_178642) subcloned into pcDNA3.1 vector was used in this study (Alexander et al., 2013). HEK‐293T cells were cultured as previously described (Smith et al., 2013) and transfected with 0.5–1 μg of TMEM16A and 0.1 μg of CD8 constructs using Fugene HD (Promega, Madison, WI, USA) according to the manufacturer's instructions. Cells were used ~12–36 h after transfection. Transfected cells were visualized using the anti‐CD8 antibody‐coated beads method (Jurman et al., 1994).
TMEM16A currents were measured with the whole‐cell or inside‐out patch configuration of the patch‐clamp technique as detailed in the Supporting Information. The exchange of solutions was achieved by using a local perfusion system consisting of eight tubes of 1.2 mm diameter in which the tip of the patch pipette was inserted. In some experiments, ultra‐rapid (<50 ms) changes in A9C concentration ([A9C]) (‘concentration jumps’) were achieved using a computer‐controlled perfusion system (Warner Instruments, Hamden, CT, USA).
The intracellular solution contained (mM) 130 CsCl, 10 EGTA, 1 MgCl2, 10 HEPES and 8 CaCl2 to obtain ~300 nM of [Ca^2+]i; pH was adjusted to 7.3 with NaOH. The intracellular solutions containing ~600 nM, ~1000 nM and ~12.5 μM [Ca^2+]i were obtained by replacing EGTA with equimolar H‐EDTA and by adding 2.1, 3.1 and 7.8 mM CaCl2 respectively. The extracellular solution contained (mM) 150 NaCl, 1 CaCl2, 1 MgCl2, 10 glucose, 10 D‐mannitol and 10 HEPES; pH was adjusted to 7.4 with NaOH. […] A9C was dissolved in DMSO (stock concentration, 300 mM); thus, the final concentration of DMSO was ≤1%. Aliquots of the stock solution were kept at −20° and used within 5 days.
Current versus V m relationships were constructed by measuring currents in response to 1 s V m steps (test pulses) from −100 to +100 mV in 40 mV increments (unless stated otherwise) after a 1 s V m step to +70 mV (pre‐pulse). Pulses were elicited every 2 s from a holding V m of 0 mV. Steady‐state currents were measured at the end of the test pulses. As detailed in the Results, in the presence of 300 nM [Ca^2+]i and extracellular A9C, the test‐pulse currents reached a peak within the first ~50 ms of the test pulse. These peak currents were also measured and plotted against the V m of the test pulse. Current density was obtained by dividing the current amplitude for the cell capacitance.
For determination of the current reversal potential (E rev), instantaneous currents were estimated from extrapolation of single exponential fits of the test‐pulse currents to the beginning of each test pulse. These instantaneous current values were plotted as a function of the V m, and the relative chord conductance was measured between an interval of ±20 m V around the E rev (Tammaro et al., 2005; Adomaviciene et al., 2013).
The project began by examining if this also applies to cloned TMEM16A channels. In the presence of increasing extracellular [A9C] ([A9C]ext), a pre‐pulse of +70 mV was used to open TMEM16A channels followed by a series of test pulses (Figure 1).
Ta C.M., Adomaviciene A., Rorsman N., Garnett H. and Tammaro P.
SUPPLEMENTARY INFORMATION
TMEM16A currents were measured with the whole-cell or inside-out configuration of
the patch-clamp technique using an Axon 200B amplifier (Molecular Devices, USA)
controlled with GE-pulse software (http://users.ge.ibf.cnr.it/pusch/programs-mik.htm).
Currents were filtered at 2-5 kHz and sampled at 10 kHz, unless stated otherwise. […]

## O=C(O)c1c2ccccc2cc2ccccc12 [A9C, Anthracene‐9‐carboxylic acid]
3000 μM A9C extracellular
  peak current at −100 mV relative to control: ~ 13 folds
3000 μM [A9C]ext, Vm > 60 mV, whole-cell
  steady-state current decrease: up to approximately threefold
3000 μM [A9C]ext, control 4.5 ± 1.4 mV
  E rev of TMEM16A currents: 8.3 ± 1.4 mV
[A9C]ext ≤ 100 μM, Vm > 60 mV, whole-cell
  steady-state current increase: ~ 1.3 folds
Any [A9C]ext tested (30-3000 μM)
  steady-state current change at Vm ≤ 60 mV: did not change substantially
